Assay results reported in patent US20140349955A1, “USE OF FLUORINE-CONTAINING WATER SOLUBLE PLATINUM COMPLEX IN PREPARING DRUGS FOR PREVENTION AND TREATMENT OF CANCERS” (GUDUI BIOPHARMA TECHNOLOGY INC., priority 2011, published 2014).

Tests used:
[1] = test system: MCF7; assay: Synergistic cytotoxicity test (MTS), MCF7; format: cell-based, human; conditions: 96 h
Experimental: (§1) Containing 10% bovine fetal serum, 1 mM of sodium pyruvate, 2 mM of L-glutamine, 50 U/mL of penicillin, 50 μg/ mL of streptomycin.
(§2) Human tumor cells: du145-human prostate cancer; MCF-7-human breast cancer; SK0V3-human ovarian carcinoma, HT-29-human colon cancer; A549-human non-small cell lung cancer (adenocarcinoma), H460-human non-small cell lung cancer (large cell carcinoma), and animal tumor cells: L1210-mice leukemia cells used in the following activity test experiments were all purchased from Shanghai An Yan Commercial Trade Co., Ltd.
(§3) MTS test method was used in cytotoxicity assay. The tumor cells of logarithmic phase were collected, and then the concentration of cell suspension was adjusted, 100 μL of the cell suspension was added to each well, the cells were placed at 1000-10000 cells/well (edge well filled with sterile PBS). Cells were incubated at 37° C. with 5% CO2 to make cell monolayer overspread the bottom of each well (96-well flat-bottomed microplate). 100 μL of certain concentration solution of a mixture of the fluorine-containing water-soluble platinum complex with other antitumor agents was added to each well. Each condition was measured in five replicates. The microplate was incubated at 37° C. with 5% CO2 for 96 h and checked with inverted microscope. MTS working reagent: To 2 mL of MTS (2 mg/mL, prepared by DPBS) was added 100 μL of PMS (1 mg/mL, prepared by DPBS). The cell culture medium was discarded after centrifugation, the cell culture plate was carefully washed 2-3 times with PBS. Before detecting the absorbance value (OD), to each sample containing well was added 100 μL of cell culture medium, then 20 μL of MTS working reagent was added. After incubation at 37° C. with 5% CO2 for 2 h, the OD (optical density) value was detected at 490 nm.
(§4) Each of above experiment was repeated five times, and the cell viability was calculated according to the mean OD values.
(§5) Cell Viability (%)=(treated group OD value/control group OD value)×100
(§6) Control group: the conditions are the same as the above without adding the tested drug mixture (100 μL of culture medium was added in stead), and finally the absorbance was measured at 490 nm to obtain the OD value of the tumor cells.
(§7) Drug Group-1: only the fluorine-containing water-soluble platinum complex was added under the above conditions to obtain cell viability of tumor cells.
(§8) Drug Group-2: only the other chemotherapeutic drug (active ingredient) was added under the above conditions to obtain cell viability of tumor cells.
(§9) Drug Combination Group: the fluorine-containing water-soluble platinum complex and other chemotherapeutic drugs were added simultaneously under the above conditions to obtain cell viability of tumor cell. (2) Evaluation Method:
(§10) When the fluorine-containing water-soluble platinum complexes used in combination with other chemotherapy drugs, the inhibition effect on cancer cell proliferation is enhanced or synergistic, and the effect was calculated using the following formula:
(§11) Combination Effect (%)={[(A1-X)+(A2-X)]/(A1-A2)|}×100
(§12) wherein, A1 is the cell viability of drug group-1, A2 is the cell viability of drug group-2, X is the cell viability of drug combination group, (A1-A2)| is the absolute value of the cell viability difference between the two groups.
(§13) Calculated according to the above formula, when the results of [Combination Effect (%)]>+100%, that means the effect of inhibition on cell proliferation is enhanced or synergistic (3) Experimental Result: […]

[2] = test system: HT29; assay: Synergistic cytotoxicity test (MTS), HT29; format: cell-based, human; conditions: 96 h
Experimental: as §1, §2, §3, §4, §5, §6, §7, §8, §9, §10, §11, §12, §13

[3] = test system: SK0V3; assay: Synergistic cytotoxicity test (MTS), SKOV3; format: cell-based, human; conditions: 96 h
Experimental: as §1, §2, §3, §4, §5, §6, §7, §8, §9, §10, §11, §12, §13

[4] = test system: H460; assay: Synergistic cytotoxicity test (MTS), H460; format: cell-based, human; conditions: 96 h
Experimental: as §1, §2, §3, §4, §5, §6, §7, §8, §9, §10, §11, §12, §13

[5] = test system: A549; assay: Synergistic cytotoxicity test (MTS), A549; format: cell-based, human; conditions: 96 h
Experimental: as §1, §2, §3, §4, §5, §6, §7, §8, §9, §10, §11, §12, §13

[6] = test system: DU145; assay: Synergistic cytotoxicity test (MTS), DU145; format: cell-based, human; conditions: 96 h
Experimental: as §1, §2, §3, §4, §5, §6, §7, §8, §9, §10, §11, §12, §13

[7] = test system: L1210 tumor cells; assay: Antitumor efficacy in L1210 tumor-bearing CDF1 mice (increase in life span); format: in vivo
Experimental: In the following test, antitumor efficacy studies were performed using 8-9 weeks old female CDF1 mice, the average weight of the animal is 20-25 grams. L1210 tumor cells (about 10^5 cells per mouse) were inoculated intraperitoneally. The fluorine-containing water-soluble platinum complexes were used to treat the tumor-bearing animals and the efficacy was compared compared with the clinical platinum antitumor drugs. […] Drugs were administered intraperitoneally on day 1 and day 4 after tumor cell transplantation. The number of experimental animals in each group was 6.
The experimental animals were purchased from Vital River Laboratory Animal Technology Co. Ltd., Tumor cells L1210-leukemia cells were purchased from Shanghai An Yan Commercial Trade Co. Ltd.
The increase in life span (ILS) is calculated as follows:
Wherein, St=the weighted median survival time of treated animals; Su=the weighted median survival time of untreated animals

[8] = other chemotherapy drug (at its listed dosage) combined with Complex 2 (dosage: 1 μM)
[9] = other chemotherapy drug (at its listed dosage) combined with Complex 3 (dosage: 1 μM)
[10] = other chemotherapy drug (at its listed dosage) combined with Complex 5 (dosage: 1 μM)
[11] = other chemotherapy drug (at its listed dosage) combined with Complex 6 (dosage: 1 μM)
[12] = other chemotherapy drug (at its listed dosage) combined with Complex 2 (dosage: 1 μM), SLOV3
[13] = other chemotherapy drug (at its listed dosage) combined with Complex 3 (dosage: 1 μM), SlOV3
[14] = other chemotherapy drug (at its listed dosage) combined with Complex 5 (dosage: 1 μM), SLOV3
[15] = other chemotherapy drug (at its listed dosage) combined with Complex 6 (dosage: 1 μM), SLOV3
[16] = 1.25 mg/Kg i.p. on day 1 and day 4
[17] = 2.5 mg/Kg i.p. on day 1 and day 4
[18] = 5.0 mg/Kg i.p. on day 1 and day 4
[19] = 50 mg/Kg i.p. on day 1 and day 4
[20] = 100 mg/Kg i.p. on day 1 and day 4
[21] = 200 mg/Kg i.p. on day 1 and day 4

SMILES | the effect of drug combination (Combination Effect) [1, 8] | the effect of drug combination (Combination Effect) [1, 9] | the effect of drug combination (Combination Effect) [1, 10] | the effect of drug combination (Combination Effect) [1, 11] | the effect of drug combination (Combination Effect) [2, 8] | the effect of drug combination (Combination Effect) [2, 9] | the effect of drug combination (Combination Effect) [2, 10] | the effect of drug combination (Combination Effect) [2, 11] | the effect of drug combination (Combination Effect) [3, 12] | the effect of drug combination (Combination Effect) [3, 13] | the effect of drug combination (Combination Effect) [3, 14] | the effect of drug combination (Combination Effect) [3, 15] | the effect of drug combination (Combination Effect) [4, 10] | the effect of drug combination (Combination Effect) [4, 11] | the effect of drug combination (Combination Effect) [5, 8] | the effect of drug combination (Combination Effect) [5, 9] | the effect of drug combination (Combination Effect) [6, 8] | the effect of drug combination (Combination Effect) [6, 9] | the effect of drug combination (Combination Effect) [6, 10] | the effect of drug combination (Combination Effect) [6, 11] | further results
O=c1[nH]cc(F)c(=O)[nH]1 [5-Fluorouracil] | ⊚ (⊚ represents the effect of drug combination > 300%) | ⊚ (⊚ represents the effect of drug combination > 300%) | ⊚ (⊚ represents the effect of drug combination > 300%) | ⊚ (⊚ represents the effect of drug combination > 300%) | ⊚ (⊚ represents the effect of drug combination > 300%) | ⊚ (⊚ represents the effect of drug combination > 300%) | ⊚ (⊚ represents the effect of drug combination > 300%) | ⊚ (⊚ represents the effect of drug combination > 300%) | ⊚ (⊚ represents the effect of drug combination > 300%) | ⊚ (⊚ represents the effect of drug combination > 300%) | ⊚ (⊚ represents the effect of drug combination > 300%) | ⊚ (⊚ represents the effect of drug combination > 300%) | ⊚ (⊚ represents the effect of drug combination > 300%) | ⊚ (⊚ represents the effect of drug combination > 300%) | ⊚ (⊚ represents the effect of drug combination > 300%) | ⊚ (⊚ represents the effect of drug combination > 300%) | ⊚ (⊚ represents the effect of drug combination > 300%) | ⊚ (⊚ represents the effect of drug combination > 300%) | ⊚ (⊚ represents the effect of drug combination > 300%) | ⊚ (⊚ represents the effect of drug combination > 300%) | –
CCCCCOC(=O)Nc1nc(=O)n([C@@H]2O[C@H](C)[C@@H](O)[C@H]2O)cc1F [Capecitabine] | ⊚ (⊚ represents the effect of drug combination > 300%) | ⊚ (⊚ represents the effect of drug combination > 300%) | ⊚ (⊚ represents the effect of drug combination > 300%) | ⊚ (⊚ represents the effect of drug combination > 300%) | ⊚ (⊚ represents the effect of drug combination > 300%) | ○ (○ represents: 100% < the effect of drug combination < 300%) | ○ (○ represents: 100% < the effect of drug combination < 300%) | ○ (○ represents: 100% < the effect of drug combination < 300%) | ○ (○ represents: 100% < the effect of drug combination < 300%) | ○ (○ represents: 100% < the effect of drug combination < 300%) | ○ (○ represents: 100% < the effect of drug combination < 300%) | ○ (○ represents: 100% < the effect of drug combination < 300%) | ○ (○ represents: 100% < the effect of drug combination < 300%) | ○ (○ represents: 100% < the effect of drug combination < 300%) | ○ (○ represents: 100% < the effect of drug combination < 300%) | ○ (○ represents: 100% < the effect of drug combination < 300%) | ○ (○ represents: 100% < the effect of drug combination < 300%) | ○ (○ represents: 100% < the effect of drug combination < 300%) | ○ (○ represents: 100% < the effect of drug combination < 300%) | ○ (○ represents: 100% < the effect of drug combination < 300%) | –
N.N.[Cl][Pt][Cl] [Cisplatin] | – | – | – | – | – | – | – | – | – | – | – | – | – | – | – | – | – | – | – | – | ILS (%) [7, 16]: 36%; Survived Animals on Day 42 [7, 16]: 0/6; ILS (%) [7, 17]: 100%; Survived Animals on Day 42 [7, 17]: 0/6; ILS (%) [7, 18]: 236%; Survived Animals on Day 42 [7, 18]: 3/6
[NH2][Pt]1([NH2])[O]C(=O)C(F)(CCCOC2OC(CO)C(O)C(O)C2O)C(=O)[O]1 (stereo not shown) [Complex 15] | – | – | – | – | – | – | – | – | – | – | – | – | – | – | – | – | – | – | – | – | ILS (%) [7, 19]: >380%; Survived Animals on Day 42 [7, 19]: 6/6; Weight Changes (g) ([7]; 50 mg/Kg i.p. on day 1 and day 4, weight changes from the first day to the seventh day): +1.0 g; ILS (%) [7, 20]: >380%; Survived Animals on Day 42 [7, 20]: 6/6; Weight Changes ([7]; 100 mg/Kg i.p. on day 1 and day 4, weight changes from the first day to the seventh day): -0.3 g; ILS (%) [7, 21]: >380%; Survived Animals on Day 42 [7, 21]: 6/6; Weight Changes ([7]; 200 mg/Kg i.p. on day 1 and day 4, weight changes from the first day to the seventh day): -0.8 g
